Reference: the Deep4Chem optical property database
Values belong to the compound of their own block, whether it stands above or below them.

Test: solvent given as SMILES

SMILES: CC(C)(C)c1ccc(/C=C/c2ccc(N(c3ccc(/C=C/c4ccc(C(C)(C)C)cc4)cc3)c3ccc(-c4nc5ccccc5nc4-c4ccc(N(c5ccc(/C=C/c6ccc(C(C)(C)C)cc6)cc5)c5ccc(/C=C/c6ccc(C(C)(C)C)cc6)cc5)cc4)cc3)cc2)cc1
absorption maximum (in C1CCOC1): 375 nm
absorption maximum (in Cc1ccccc1): 373 nm

SMILES: CCCCN1C(=O)c2cc(Oc3ccc(C(C)(C)C)cc3)c3c4c(Oc5ccc(C(C)(C)C)cc5)c(Oc5ccc(C(C)(C)C)cc5)c5c6c(cc(Oc7ccc(C(C)(C)C)cc7)c(c7c(Oc8ccc(C(C)(C)C)cc8)c(Oc8ccc(C(C)(C)C)cc8)c(c2c37)C1=O)c64)C(=O)N(CCCC)C5=O
absorption maximum (in ClC(Cl)Cl): 570 nm

SMILES: CCCCc1ccc(-n2c3c4cc(F)ccc4nnc3c3c2c2nnc4ccc(F)cc4c2n3-c2ccc(CCCC)cc2)cc1
absorption maximum (in Cc1ccccc1): 315 nm

SMILES: CCCN1c2ccccc2Sc2cc(/C=C\c3cc(=O)oc4ccc(C)cc34)ccc21
absorption maximum (in ClC(Cl)Cl): 423 nm

SMILES: OB(O)c1ccc(-c2ccc(N(c3ccccc3)c3ccccc3)cc2)cc1
absorption maximum (in C1CCCCC1): 332.8 nm
absorption maximum (in C1CCOC1): 331 nm
absorption maximum (in CCO): 329.6 nm
absorption maximum (in CCOCC): 330 nm
absorption maximum (in CO): 326 nm

SMILES: COc1cc2c3c4c(c5ccc(C(C)(C)C)cc5c5c(OC)cc(OC)c(c2c(OC)c1OC)c45)=[N+]1C3=Nc2c3c4cc(OC)c(OC)c(OC)c4c4c(OC)cc(OC)c5c6cc(C(C)(C)C)ccc6c(c3c54)n2[B-]1(F)F
absorption maximum (in Cc1ccccc1): 878 nm

SMILES: Cc1cc(N2c3ccccc3[Si](c3ccccc3)(c3ccccc3)c3ccccc32)c(C)cc1-c1nc(-c2ccccc2)nc(-c2ccccc2)n1
absorption maximum (in Cc1ccccc1): 365.47 nm

SMILES: CCCCCCCCC1(CCCCCCCC)c2ccccc2-c2ccc(-c3nnc(-c4ccc(-n5c6ccc(C(C)(C)C)cc6c6cc(C(C)(C)C)ccc65)cc4)o3)cc21
absorption maximum (in Cc1ccccc1): 352 nm

SMILES: CCN(CC)c1ccc2nc3c4ccccc4c(=O)cc-3oc2c1
absorption maximum (in C1COCCO1): 519 nm
absorption maximum (in CC#N): 535 nm
absorption maximum (in CC(C)=O): 533 nm
absorption maximum (in CCCCCC): 508 nm
absorption maximum (in CCO): 549 nm
absorption maximum (in CCOC(C)=O): 524 nm
absorption maximum (in CO): 553 nm
absorption maximum (in CS(C)=O): 552 nm
absorption maximum (in Cc1ccccc1): 524 nm
absorption maximum (in ClCCl): 539 nm

SMILES: CCC1=C(C)C(=O)n2c1cc1c(C)c(CC(=O)OC)c(C)n1c2=O
absorption maximum (in CC#N): 413 nm
absorption maximum (in CC(C)=O): 413 nm
absorption maximum (in CO): 420 nm
absorption maximum (in CS(C)=O): 421 nm
absorption maximum (in ClC(Cl)Cl): 423 nm
absorption maximum (in c1ccccc1): 416 nm

SMILES: CCCCCCCCCCCCCCCC[n+]1ccc(/C=C(\C)c2ccccc2)cc1
absorption maximum (in C1COCCO1): 387.4 nm
absorption maximum (in CC(C)=O): 383.2 nm
absorption maximum (in CC(C)O): 385.4 nm
absorption maximum (in CCCCCC): 398.5 nm
absorption maximum (in CCCCO): 390.5 nm
absorption maximum (in CCCO): 398.5 nm
absorption maximum (in CCO): 399.5 nm
absorption maximum (in CN(C)C=O): 384.4 nm
absorption maximum (in CO): 400.6 nm
absorption maximum (in CS(C)=O): 384.6 nm
absorption maximum (in Cc1ccccc1): 393.5 nm
absorption maximum (in ClC(Cl)(Cl)Cl): 399.5 nm
absorption maximum (in ClC(Cl)Cl): 384 nm
absorption maximum (in ClCCl): 386.4 nm
absorption maximum (in c1ccccc1): 386.8 nm

SMILES: CC(C)CCCCN1CCc2c1ccc1c3c(ccc21)C(=O)CCC3
absorption maximum (in C1CCCCC1): 362 nm
absorption maximum (in CC#N): 370 nm
absorption maximum (in CC(C)O): 376 nm
absorption maximum (in CCC(C)=O): 368 nm
absorption maximum (in CCO): 374 nm
absorption maximum (in CCOC(C)=O): 366 nm
absorption maximum (in CS(C)=O): 376 nm
absorption maximum (in Cc1ccccc1): 368 nm
absorption maximum (in ClCCl): 373 nm
absorption maximum (in Clc1ccccc1): 370 nm

SMILES: O=C1c2ccccc2C2=Nc3cccc4cccc(c34)N12
absorption maximum (in ClCCl): 448 nm

SMILES: CCCCOC(=O)c1cc(Cl)c2c3c(Cl)cc4c5c(cc(Cl)c(c6c(Oc7ccc(OC)cc7)cc(C(=O)OCCCC)c1c26)c53)C(=O)N(c1c(C(C)C)cccc1C(C)C)C4=O
absorption maximum (in Cc1ccccc1): 519 nm

SMILES: CC(C)(C)c1ccc2c(c1)c1cc(C(C)(C)C)ccc1n2-c1ccccc1-c1nc(-c2ccccc2P(=O)(c2ccccc2)c2ccccc2)nc(-c2ccccc2P(=O)(c2ccccc2)c2ccccc2)n1
absorption maximum (in C1CCOC1): 343.56 nm
absorption maximum (in CC#N): 347.54 nm
absorption maximum (in CC(C)=O): 343.88 nm
absorption maximum (in CN(C)C=O): 345.95 nm
absorption maximum (in Cc1ccccc1): 320.35 nm
absorption maximum (in ClC(Cl)Cl): 342.93 nm
absorption maximum (in ClCCl): 341.49 nm

SMILES: Cc1cc(C)c(B(c2ccc(N(c3ccccc3)c3ccccc3)cc2)c2c(C)cc(C)cc2C)c(C)c1
absorption maximum (in Cc1ccccc1): 380 nm

SMILES: CC(C)(C)c1ccc(-c2nc3c4ccccc4c4ccccc4c3n2-c2ccc(C(C)(C)C)cc2)cc1
absorption maximum (in C1CCOC1): 314 nm
absorption maximum (in C1COCCO1): 315 nm
absorption maximum (in CC#N): 310 nm
absorption maximum (in CCCCCC): 315 nm
absorption maximum (in CCCCOCCCC): 315 nm
absorption maximum (in CCN(CC)CC): 316 nm
absorption maximum (in CCOC(C)=O): 313 nm
absorption maximum (in CCOCC): 313 nm
absorption maximum (in CN(C)C=O): 313 nm
absorption maximum (in Cc1ccccc1): 316 nm
absorption maximum (in ClC=C(Cl)Cl): 316 nm
absorption maximum (in ClCCl): 313 nm

SMILES: Cn1c(=O)c(/N=N/c2ccc(S(=O)(=O)O)c3ccccc23)c(O)c2ccccc21
absorption maximum (in C1CCOC1): 467 nm
absorption maximum (in CC(C)=O): 465 nm
absorption maximum (in CCOC(C)=O): 464 nm
absorption maximum (in CO): 468 nm
absorption maximum (in CS(C)=O): 470 nm
absorption maximum (in Cc1ccccc1): 469 nm
absorption maximum (in ClCCl): 467 nm
absorption maximum (in O): 456 nm

SMILES: Fc1ccc2sc3nc(-c4ccccc4)sc3c2c1
absorption maximum (in CS(C)=O): 345 nm

SMILES: N#Cc1cc2nc3c(nc2cc1C#N)C1c2ccc(N(c4ccccc4)c4ccccc4)cc2C3c2ccc(N(c3ccccc3)c3ccccc3)cc21
absorption maximum (in C1CCCCC1): 428 nm
absorption maximum (in CC#N): 410 nm
absorption maximum (in Cc1ccccc1): 420 nm
absorption maximum (in ClCCl): 428 nm

SMILES: Oc1ccc2ccccc2c1/C=N/C1CCCCC1/N=C/c1c(O)ccc2ccccc12 (stereo unspecified)
absorption maximum (in CC#N): 397 nm

More lines, now with the values ahead:

absorption maximum (in ClCCl): 466 nm
SMILES: CCCCN(CCCC)c1ccc2c(c1)C#CC#Cc1cc(N(CCCC)CCCC)ccc1C#Cc1cc(c3cc1C#Cc1ccc(C(F)(F)F)cc1C#CC#Cc1cc(C(F)(F)F)ccc1C#C3)C#C2

absorption maximum (in ClC(Cl)Cl): 662 nm
SMILES: Cc1ccc(C2=C(/C=C/C(=O)OC3CC[C@@]4(C)C(=CC[C@H]5[C@@H]6CC[C@H]([C@H](C)CCCC(C)C)[C@@]6(C)CC[C@@H]54)C3)C(c3ccc(C)cc3)=[N+]3C2=Nc2c(-c4ccc(C)cc4)c(Br)c(-c4ccc(C)cc4)n2[B-]3(F)F)cc1 (stereo partly specified)

absorption maximum (in ClCCl): 335 nm
SMILES: Cc1ccc(C(=O)NC(C)(C)C)c2c1ccc1c3ccccc3c3ccccc3c12

absorption maximum (in C1CCOC1): 382 nm
SMILES: CCC1(CC)c2ccccc2-c2c1c1c(c3c2C(CC)(CC)c2cc(/C=C/c4cccs4)ccc2-3)C(CC)(CC)c2ccccc2-1

absorption maximum (in CCO): 340 nm
SMILES: C/N=N/C

absorption maximum (in CCO): 612 nm
SMILES: CC1=C(Cl)C(/C=C/c2ccc3c(c2)c2ccccc2n3Cc2cn(CCC[P+](c3ccccc3)(c3ccccc3)c3ccccc3)nn2)=[N+]2C1=C(c1ccc(I)cc1)c1c(C)c(Cl)c(C)n1[B-]2(F)F

absorption maximum (in ClC(Cl)Cl): 493 nm
SMILES: N#Cc1nc(N(Cc2ccccc2)Cc2ccccc2)c(C#N)nc1N(Cc1ccccc1)Cc1ccccc1

absorption maximum (in CCOC(C)=O): 388 nm
SMILES: OCc1cc2c(cc3ccc4cccc5ccc2c3c45)[nH]1

absorption maximum (in ClCCl): 352 nm
SMILES: C(S/C=C/c1ccc(-c2ccc(/C=C/SC=C3CCCC3)cc2)cc1)=C1CCCC1

absorption maximum (in C1CCCCC1): 415 nm
absorption maximum (in CC#N): 417 nm
absorption maximum (in CO): 416 nm
absorption maximum (in ClCCl): 419 nm
SMILES: COc1c2ccccc2c(OC)c2c1c1cc(F)ccc1n2C

absorption maximum (in C1CCOC1): 392 nm
SMILES: F[Si-](F)(c1c2ccccc2cc2ccccc12)(c1c2ccccc2cc2ccccc12)c1c2ccccc2cc2ccccc12

absorption maximum (in C1COCCO1): 336 nm
SMILES: CCC1=C(C2=C(C3=C(CC)S(=O)(=O)c4cc(-c5ccccc5)ccc43)C(F)(F)C(F)(F)C2(F)F)c2ccc(-c3ccccc3)cc2S1(=O)=O

absorption maximum (in CCO): 386.1 nm
SMILES: Cc1cc(C)c2cc3cc(C)ncc3cc2c1

absorption maximum (in C1CCCCC1): 330 nm
absorption maximum (in CO): 330 nm
SMILES: Clc1ccc(/C=C(\c2ccccc2)c2nc3ccccc3o2)cc1

absorption maximum (in ClCCl): 359 nm
SMILES: CCCCC(CC)COc1ccc2nc(-c3ccc(-c4c(C)noc4C)s3)sc2c1 (stereo unspecified)

absorption maximum (in CC#N): 430 nm
absorption maximum (in ClCCl): 438 nm
SMILES: Cn1c(=O)cc(C(=O)c2ccccc2)c2sc(-c3ccc(N(c4ccccc4)c4ccccc4)cc3)cc21

absorption maximum (in O): 500 nm
SMILES: CC[n+]1nc2cc3c4c(c2c2cc(C)ccc21)CCCN4CCC3

absorption maximum (in ClCCl): 350 nm
SMILES: COc1ccc(C2=Cc3ccccc3[Si]2(c2ccccc2)c2ccccc2)cc1

absorption maximum (in O): 407 nm
SMILES: Fc1cc(F)c2cc3cccc[n+]3cc2c1

absorption maximum (in CC#N): 470 nm
SMILES: C[C@]12SC(=O)C=C1c1nc(-c3ccc(O)cc3)[nH]c1C1=CC(=O)S[C@@]12C

absorption maximum (in ClCCl): 522 nm
SMILES: CCc1ccccc1-c1c2ccccc2c(C#Cc2ccccc2)c2cc3ccccc3cc12

absorption maximum (in CC#N): 348 nm
SMILES: c1ccc(-c2nc3nc4ccccc4nc3n2-c2ccccc2)cc1

absorption maximum (in CC#N): 472 nm
SMILES: COC(=O)/C=C/c1sc(-c2ccc(N(C)C)s2)c(-c2ccsc2)c1N

absorption maximum (in C1COCCO1): 443 nm
absorption maximum (in CC#N): 445 nm
absorption maximum (in CO): 446 nm
absorption maximum (in ClCCCl): 448 nm
SMILES: CCn1c(=O)nc2n(C)c3cc(C)ccc3nc-2c1=O

absorption maximum (in ClC(Cl)Cl): 368 nm
SMILES: COc1ccc(-c2nc3ccccc3nc2-c2ccc(OC)cc2)cc1

absorption maximum (in ClCCl): 303 nm
SMILES: Cc1cc2ccccc2c2c1c1ccccc1n2-c1ncccn1

absorption maximum (in ClC(Cl)Cl): 538 nm
SMILES: CCCCN1C(=O)c2c(Br)c(Br)c3c4c(Br)c(Br)c5c6c(c(Br)c(Br)c(c7c(Br)c(Br)c(c2c37)C1=O)c64)C(=O)N(CCCC)C5=O

absorption maximum (in O): 430 nm
SMILES: COc1cc(-c2cc(N3CCCCC3)c(C#N)c3c2-c2cccc4cccc-3c24)cc(OC)c1OC

absorption maximum (in CN(C)C=O): 344 nm
SMILES: Cc1ccc2[nH]c(-c3ccc(-c4ccc(-c5ccc(-c6nc7cc(C)ccc7[nH]6)cc5)c(F)c4)cc3)nc2c1

absorption maximum (in C1CCOC1): 342 nm
absorption maximum (in CCCCCC): 338 nm
absorption maximum (in CCO): 344 nm
absorption maximum (in CS(C)=O): 345 nm
SMILES: CCOc1ccc2cc(-c3ccc(C)cc3)c(=O)oc2c1
